Literature values, collected in PMC10202811 (Nature Medicine, 2023).

How the values were obtained:
ALK-driven malignancies = tested on: ALK-driven malignancies; parameters: method as in PMID 34780709; details: children, 6/30; cited from earlier work
[1] = tested on: inflammatory myofibroblastic tumors; details: cited from earlier work

Compound | RR (complete/partial) (ALK-driven malignancies) [%] | RR [1] [%]
Cc1cc(Nc2ncc(Cl)c(Nc3ccccc3S(=O)(=O)C(C)C)n2)c(OC(C)C)cc1C1CCNCC1 [ceritinib] | 20 | –
C[C@@H](Oc1cc(-c2cnn(C3CCNCC3)c2)cnc1N)c1c(Cl)ccc(F)c1Cl [crizotinib] | – | 86
